Reference: ChEMBL document CHEMBL5727610, “Cardiac glycoside analogs and their use in methods for inhibition of viral infection” (2020)

assay: The inhibition of HCMV replication by digitoxin: The effect of digitoxin analogs on HCMV replication was tested. HFFs were infected with pp28-luciferase HCMV and treated with the compounds (Table 2, FIG. 2A). EC50, CC50 and selectivity index (SI) calculated as CC50/EC50 were determined for each compound. […] The compounds with the best SI were α-L rhamnose, α-L amicetose and mannose. Virus yield was determined for selected compounds (FIG. 2B), and a dose dependent effect on virus DNA yield was observed.

| SMILES | EC50 [nM] |
| --- | --- |
| CC1OC(OC2C(O)CC(OC3C(O)CC(O[C@H]4CC[C@@]5(C)[C@H](CC[C@@H]6[C@@H]5CC[C@]5(C)[C@@H](C7=CC(=O)OC7)CC[C@]65O)C4)OC3C)OC2C)CC(OC2OC(CO)[C@H](O)C(O)[C@@H]2O)C1C (some centres not stated) | 7.31 |
| CC1OC(OC2C(C)OC(OC3C(O)CC(O[C@H]4CC[C@@]5(C)[C@H](CC[C@@H]6[C@@H]5CC[C@]5(C)[C@@H](C7=CC(=O)OC7)CC[C@]65O)C4)OC3C)C(C)C2O)CC(OC2OC(C)[C@@H](OC3OC(C)[C@H](OC4OC(C)[C@H](O)C[C@H]4O)C[C@H]3O)C[C@H]2O)C1C (some centres not stated) | 2080 |
| CC1OC(OC2C(C)OC(OC3C(O)CC(O[C@H]4CC[C@@]5(C)[C@H](CC[C@@H]6[C@@H]5CC[C@]5(C)[C@@H](C7=CC(=O)OC7)CC[C@]65O)C4)OC3C)C(C)C2O)CC(OC2OC(C)[C@H](OC3OC(C)[C@@H](OC4OC(C)[C@@H](O)C[C@@H]4O)C[C@@H]3O)C[C@@H]2O)C1C (some centres not stated) | 113 |
| CC1OC(OC2C(O)CC(OC3C(O)CC(O[C@H]4CC[C@@]5(C)[C@H](CC[C@@H]6[C@@H]5CC[C@]5(C)[C@@H](C7=CC(=O)OC7)CC[C@]65O)C4)OC3C)OC2C)CC(OC2OC(C)[C@@H](O)C(O)[C@H]2O)C1C (some centres not stated) | 26.6 |
| CC1OC(OC2C(O)CC(OC3C(O)CC(O[C@H]4CC[C@@]5(C)[C@H](CC[C@@H]6[C@@H]5CC[C@]5(C)[C@@H](C7=CC(=O)OC7)CC[C@]65O)C4)OC3C)OC2C)CC(OC2OC(C)[C@H](OC3OC(C)[C@@H](O)C[C@@H]3O)C[C@@H]2O)C1C (some centres not stated) | 14.8 |
| CC1OC(OC2C(O)CC(OC3C(O)CC(O[C@H]4CC[C@@]5(C)[C@H](CC[C@@H]6[C@@H]5CC[C@]5(C)[C@@H](C7=CC(=O)OC7)CC[C@]65O)C4)OC3C)OC2C)CC(OC2OC(C)[C@H](O)C(O)[C@@H]2O)C1C (some centres not stated) | 4.77 |
| CC1OC(OC2C(C)OC(OC3C(O)CC(O[C@H]4CC[C@@]5(C)[C@H](CC[C@@H]6[C@@H]5CC[C@]5(C)[C@@H](C7=CC(=O)OC7)CC[C@]65O)C4)OC3C)C(C)C2O)CC(OC2OC(C)[C@H](OC3OC(C)[C@@H](OC4OC(C)[C@@H](O)C(O)[C@@H]4O)C(O)[C@@H]3O)C(O)[C@@H]2O)C1C (some centres not stated) | 233 |
| CC1OC(OC2C(C)OC(OC3C(O)CC(O[C@H]4CC[C@@]5(C)[C@H](CC[C@@H]6[C@@H]5CC[C@]5(C)[C@@H](C7=CC(=O)OC7)CC[C@]65O)C4)OC3C)C(C)C2O)CC(OC2OC(C)[C@@H](OC3OC(C)[C@H](OC4OC(C)[C@H](O)C(O)[C@H]4O)C(O)[C@H]3O)C(O)[C@H]2O)C1C (some centres not stated) | 322 |
| CC1OC(OC2C(O)CC(OC3C(O)CC(O[C@H]4CC[C@@]5(C)[C@H](CC[C@@H]6[C@@H]5CC[C@]5(C)[C@@H](C7=CC(=O)OC7)CC[C@]65O)C4)OC3C)OC2C)CC(OC2OC(C)[C@H](OC3OC(C)[C@@H](O)C(O)[C@@H]3O)C(O)[C@@H]2O)C1C (some centres not stated) | 36.7 |
| CC1OC(OC2C(O)CC(OC3C(O)CC(O[C@H]4CC[C@@]5(C)[C@H](CC[C@@H]6[C@@H]5CC[C@]5(C)[C@@H](C7=CC(=O)OC7)CC[C@]65O)C4)OC3C)OC2C)CC(OC2OC(C)[C@@H](OC3OC(C)[C@H](O)C(O)[C@H]3O)C(O)[C@H]2O)C1C (some centres not stated) | 210 |
| CC1OC(OC2C(O)CC(OC3C(O)CC(O[C@H]4CC[C@@]5(C)[C@H](CC[C@@H]6[C@@H]5CC[C@]5(C)[C@@H](C7=CC(=O)OC7)CC[C@]65O)C4)OC3C)OC2C)CC(OC2OC(C)[C@@H](O)C[C@H]2O)C1C (some centres not stated) | 37.5 |
| CC1OC(OC2C(O)CC(OC3C(O)CC(O[C@H]4CC[C@@]5(C)[C@H](CC[C@@H]6[C@@H]5CC[C@]5(C)[C@@H](C7=CC(=O)OC7)CC[C@]65O)C4)OC3C)OC2C)CC(OC2OC(C)[C@@H](OC3OC(C)[C@H](O)C[C@H]3O)C[C@H]2O)C1C (some centres not stated) | 786 |
